Laboratory results as given in ChEMBL document CHEMBL4270495, “Oleanane-, ursane-, and quinone methide friedelane-type triterpenoid derivatives: Recent advances in cancer treatment” (Eur J Med Chem, 2017).
Blank lines part the entries; values can stand above or below the compound they belong to.

Key:
[1] = test system: BGC-823; test: Cytotoxicity in human BGC823 cells assessed as reduction in cell viability incubated for 48 hrs by MTT assay; format: functional, cell-based; conditions: BGC-823, 48 h
[2] = test system: HeLa; test: Cytotoxicity in human HeLa cells assessed as reduction in cell viability incubated for 48 hrs by MTT assay; format: functional, cell-based
[3] = test system: HepG2; test: Cytotoxicity in human HepG2 cells assessed as reduction in cell viability incubated for 48 hrs by MTT assay; format: functional, cell-based; conditions: HepG2, 48 h
[4] = test system: A549; test: Cytotoxicity in human A549 cells assessed as reduction in cell viability incubated for 24 hrs by MTT assay; format: functional, cell-based; conditions: A549, 24 h
[5] = test system: A549; test: Potency index, ratio of IC50 for Iressa to IC50 for test compound for cytotoxicity in human A549 cells assessed as reduction in cell viability incubated for 24 hrs by MTT assay; format: functional
[6] = test system: MCF7; test: Cytotoxicity in human MCF7 cells assessed as reduction in cell viability incubated for 24 hrs by MTT assay; format: functional, cell-based; conditions: MCF7, 24 h
[7] = test system: Huh-7; test: Cytotoxicity in human HuH7 cells assessed as reduction in cell viability incubated for 72 hrs by cell-titer Glo asay; format: functional, cell-based; conditions: Huh-7, 72 h
[8] = test system: Hep 3B2; test: Cytotoxicity in human Hep3B cells assessed as reduction in cell viability incubated for 72 hrs by cell-titer Glo asay; format: functional, cell-based
[9] = test system: HepG2; test: Cytotoxicity in human HepG2 cells assessed as reduction in cell viability incubated for 72 hrs by cell-titer Glo asay; format: functional, cell-based; conditions: HepG2, 72 h
[10] = test system: MDA-MB-231; test: Inhibition of cell invasion in human MDA-MB-231 cells; format: functional
[11] = test system: MDA-MB-231; test: Antiproliferative activity in human MDA-MB-231 cells assessed as reduction in cell viability incubated for 24 to 72 hrs by MTT assay; format: functional, cell-based
[12] = test system: BJ; test: Cytotoxicity in human BJ cells assessed as reduction in cell viability incubated for 72 hrs by MTT assay; format: functional, cell-based
[13] = test system: HeLa; test: Cytotoxicity in human HeLa cells assessed as reduction in cell viability incubated for 72 hrs by MTT assay; format: functional, cell-based
[14] = test system: MCF7; test: Cytotoxicity in human MCF7 cells assessed as reduction in cell viability incubated for 72 hrs by MTT assay; format: functional, cell-based; conditions: MCF7, 72 h
[15] = test system: HT-29; test: Cytotoxicity in human HT-29 cells assessed as reduction in cell viability incubated for 72 hrs by MTT assay; format: functional, cell-based; conditions: HT-29, 72 h
[16] = Cytotoxicity in human A375-S2 cells assessed as reduction in cell viability incubated for 48 hrs by MTT assay; format: functional, cell-based; conditions: A375-S2, 48 h
[17] = test system: PC-3; test: Cytotoxicity in human PC3 cells assessed as reduction in cell viability incubated for 48 hrs by XTT assay; format: functional, cell-based; conditions: PC-3, 48 h
[18] = test system: Bel-7402; test: Cytotoxicity in human Bel7402 cells assessed as reduction in cell viability incubated for 72 hrs by MTT assay; format: functional, cell-based; conditions: Bel-7402, 72 h
[19] = test system: COLO 205; test: Cytotoxicity in human COLO205 cells assessed as reduction in cell viability incubated for 72 hrs by MTT assay; format: functional, cell-based; conditions: COLO 205, 72 h
[20] = test system: H4; test: Cytotoxicity in human H4 cells assessed as reduction in cell viability incubated for 72 hrs by MTT assay; format: functional, cell-based; conditions: H4, 72 h
[21] = test system: Daudi; test: Cytotoxicity in human Daudi cells assessed as reduction in cell viability; format: functional, cell-based
[22] = test system: T-ALL; test: Cytotoxicity in human T-ALL cells assessed as reduction in cell viability; format: functional, cell-based
[23] = test system: HL-60; test: Cytotoxicity in human HL60 cells assessed as reduction in cell viability; format: functional, cell-based
[24] = test system: NCI-H1299; test: Cytotoxicity in human NCI-H1299 cells assessed as reduction in cell viability; format: functional, cell-based
[25] = Cytotoxicity in human BCP-ALL cells assessed as reduction in cell viability; format: functional, cell-based
[26] = test system: MCF7; test: Cytotoxicity in human MCF7 cells assessed as reduction in cell viability incubated for 48 hrs by SRB assay; format: functional, cell-based; conditions: MCF7, 48 h
[27] = test system: HMEC; test: Cytotoxicity in human HMEC cells assessed as reduction in cell viability incubated for 48 hrs by SRB assay; format: cell-based
[28] = Cytotoxicity in human HELF cells assessed as reduction in cell viability incubated for 24 hrs by MTT assay; format: cell-based
[29] = test system: MDA-MB-231; test: Cytotoxicity in human MDA-MB-231 cells assessed as reduction in cell viability incubated for 48 hrs by SRB assay; format: functional; conditions: MDA-MB-231, 48 h
[30] = Cytotoxicity in human […] cells assessed as reduction in cell viability incubated for 72 hrs by MTT assay; format: functional, cell-based
[31] = test system: AGS; test: Cytotoxicity in human AGS cells assessed as reduction in cell viability incubated for 24 hrs by MTT assay; format: functional, cell-based

SMILES: CC(=O)O/N=C1\CC[C@]2(C)[C@H]3CC=C4[C@@H]5[C@@H](C)[C@H](C)CC[C@]5(C(=O)Nc5ccccc5C(=O)O)CC[C@@]4(C)[C@]3(C)CC[C@H]2C1(C)C
- IC50 [1]: 9.2 µM
- IC50 [2]: 13.8 µM
- IC50 [3]: 23.7 µM

SMILES: CC1(C)CC[C@]2(C(=O)O)CC[C@]3(C)C(=CC[C@@H]4[C@@]5(C)CC[C@H](O[C@@H]6OC[C@H](O)[C@H](O[C@H]7O[C@H](CO)[C@@H](O)[C@H](O)[C@@H]7O)[C@H]6O)[C@@](C)(CO)[C@@H]5CC[C@]43C)[C@H]2C1
- IC50 [4]: 6.6 µM
- Ratio IC50 [5]: 4
- IC50 [6]: 19.3 µM

SMILES: CC1=C(O)C(=O)C=C2C1=CC=C1[C@@]2(C)CC[C@@]2(C)[C@@H]3C[C@](C)(C(=O)NCCc4ccccc4)CC[C@]3(C)CC[C@]12C
- IC50 [7]: 1.04 µM
- IC50 [8]: 1.06 µM
- IC50 [9]: 3.58 µM

- IC50 [11]: 3.4 µM
SMILES: CC1(C)CC[C@]2(C(=O)O)CC[C@]3(C)C(=CC[C@@H]4[C@@]5(C)CC[C@H](OC(=O)NS(=O)(=O)c6ccc(F)cc6)C(C)(C)[C@@H]5CC[C@]43C)[C@@H]2C1
- inhibition (INH) [10]: 72.5%

SMILES: COC(=O)[C@]12CC[C@@H](C)[C@H](C)[C@H]1C1=CC(=O)[C@@H]3[C@@]4(C)C(C=O)=C[C@@](C)(COS(C)(=O)=O)[C@@H]4CC[C@@]3(C)[C@]1(C)CC2
- IC50 [12]: 2.43 µM
- IC50 [13]: 0.24 µM
- IC50 [14]: 0.65 µM
- IC50 [15]: 0.59 µM

SMILES: CC1(C)CC[C@]2(C(=O)OCc3cn(-c4ccc([N+](=O)[O-])cc4)nn3)CC[C@]3(C)C(=CC[C@@H]4[C@@]5(C)CCC(=O)C(C)(C)[C@@H]5CC[C@]43C)[C@@H]2C1
- IC50 [16]: < 3 µM

SMILES: C[C@H]1[C@H](C)CC[C@]2(C)CC[C@]3(C)C(=CC(=O)[C@@H]4[C@@]5(C)CC[C@H](OC(=O)/C=C/c6ccccc6)[C@](C)(C(=O)O)[C@@H]5CC[C@]43C)[C@H]12
- IC50 [17]: 3.6 µM

SMILES: CC(=O)Oc1cc2c(c(C)c1OC(C)=O)C(S(=O)(=O)O)C=C1C2(C)CC[C@@]2(C)[C@@H]3C[C@](C)(C(=O)O)CC[C@]3(C)CC[C@]12C (single isomer, unassigned)
- IC50 [18]: 1.73 µM
- IC50 [19]: 0.06 µM
- IC50 [20]: 1.37 µM

SMILES: CC1=C(O)C(=O)C=C2C1=CC=C1[C@@]2(C)CC[C@@]2(C)[C@@H]3C[C@](C)(C(=O)O)CC[C@]3(C)CC[C@]12C [CELASTROL]
- IC50 [21]: < 1 µM
- IC50 [22]: < 1 µM
- IC50 [23]: < 1 µM
- IC50 [24]: < 1 µM
- IC50 [25]: < 1 µM

SMILES: C[C@H]1[C@H](C)CC[C@]2(C(=O)O)CC[C@]3(C)C(=CC[C@@H]4[C@@]5(C)CC[C@H](O)C(C)(C)[C@@H]5CC[C@]43C)[C@H]12 [URSOLIC ACID]
- GI50 [26]: 21 µM
- IC50 [27]: 39.3 µM
- IC50 [28]: 21.3 µM
- GI50 [29]: 11.1 µM
- IC50 [30]: 26.5 µM
- IC50 [31]: 43.3 µM
